In paper PMC7023232, “Polymer Cancerostatics Containing Cell-Penetrating Peptides: Internalization Efficacy Depends on Peptide Type and Spacer Length” (Pharmaceutics, 2020):
Read-outs that look alike come from different tables or passages of the source.

What was measured:
Type in all cases: cell-based, human
[1] = system: HeLa cells; assay: Alamar Blue cell viability (cytotoxicity)
Method: Cytotoxicity of polymer–peptide conjugates was determined using Alamar Blue® cell viability reagent (Thermo Fischer Scientific, Czech Republic) in HeLa cells according to the manufacturer’s protocol. Cells were seeded into 96-well plates in 100 μL of DMEM 24 h prior to experiment at a density of 5 × 10^3 cells per well. […] […] Then the medium was replaced by 90 μL of fresh medium with 10 μL of Alamar Blue® reagent and incubated for the next 4 h in 5% CO2 at 37 °C. […] The fluorescence intensity was measured using a Synergy Neo plate reader (Bio-Tek, Prague, Czech Republic) with excitation at 550 nm and emission at 590 nm. Non-treated cells were used as a negative control and free pirarubicin as a positive control. All samples were measured in triplicate in three independent experiments. The half maximal inhibitory concentration value IC50 was expressed as a concentration of CPP ± SD and pirarubicin ± SD, respectively. […] In the case of drug bearing polymer conjugates, the concentration varied from 43.2 nM to 44.3 μM of pirarubicin.
Results were plotted as average ± standard deviation (SD). All statistical analysis was performed using GraphPad Prism 5.03. An ANOVA test was followed by Dunnett’s or Turkey’s test. A value of *** p < 0.001, ** p < 0.01, and * p < 0.05 was considered statistically significant. All IC50 (the concentrations of the CPP or drug reducing the cell viability to one half) values were obtained from calculations corresponding to fitting by logistic S-curves.

[2] = system: HeLa cells; assay: Laser scanning confocal microscopy of intracellular uptake and localization
Method: Laser scanning confocal microscopy (LSCM) was used to visualize the intracellular uptake of selected polymer conjugates. HeLa cells were seeded 24 h prior to an experiment (1.5 × 10^5 cells per well) to confocal chambers (1 μ-dishes providing a 35 mm^2 growth area with 500 μL cell culture medium) with four chambers in a 20 mm micro-well and a #1 cover glass (0.13–0.16 mm) (Bio-Port Europe, Prague, Czech Republic). Medium was replaced by fresh medium with dissolved polymer–peptide conjugates and added to confocal chamber and incubated either at 4 °C or at 37 °C for 1 h. After the incubation time, cells were washed twice with PBS and measured by confocal microscopy. Hoechst 33342 was used for visualization of cell nuclei (5 μg·mL^−1, Thermo Fischer Scientific, Czech Republic) and cell membranes were stained with CellMask™ Green (1 μg⋅mL^−1, Thermo Fisher Scientific, Czech Republic) for 1 h before imaging at 4 °C or 10 min at 37 °C. Observation of samples was performed by Olympus IX83 coupled with FV10-ASW software (Olympus, Prague, Czech Republic). The samples were scanned using the 60× oil objective Plan ApoN (1.42 numerical apertures). Dy633-labeled polymers were excited at 637 nm and emitted light was detected through a 650–750 nm filter. For the detection of Hoechst 33342 dye-stained nuclei, an excitation wavelength of 405 nm was used and emitted light was detected through a 420–500 nm filter. CellMask Green-stained cell membranes were excited at 488 nm and the emitted light was detected through a 500–600 nm filter. All samples were measured in duplicate in two independent experiments.
A confocal microscopy study was performed to support and extend the data obtained by flow cytometry. Confocal microscopy imaging was used to map localization of CPP conjugates. The polymer conjugates with the highest cell penetration activity, TAT12 and PEN12, were selected for the confocal microscopy experiments. Conjugate REF was used as a control. The polymers were incubated with HeLa cells for 1, 2, or 4 h at 4 or 37 °C.

[3] = system: HeLa cells; assay: Flow cytometry of cellular uptake of fluorescently labeled polymer–peptide conjugates (median fluorescence intensity relative to control polymer REF); conditions: for uptake relative to control polymer at the highest concentration: highest concentration used; for internalization efficiency compared with the control polymer: HeLa cells, flow cytometry, concentration and temperature not stated at this place (abstract); for cell penetration compared with control polymer (in words): any of the concentrations used, at 4 °C and at 37 °C
Method: The HeLa cell line (LGC Standards, Poland) was cultured in Dulbecco’s modified Eagle medium (DMEM) supplemented with 100 U of penicillin, 100 μg⋅mL^−1 streptomycin, and 10% fetal bovine serum in 25 cm^2 flasks. Cells were cultivated in a humidified incubator at 37 °C with 5% CO2. The chemicals were purchased from Life Technologies/Gibco, Prague, Czech Republic.
The HeLa cell line was incubated with fluorescently labeled polymer–peptide conjugates for 1 h at 4 °C and 37 °C. For measurement at 4 °C, HeLa cells were harvested with 0.05% trypsin (Thermo Fisher Scientific, Czech Republic) at 37 °C for 3 min. Subsequently, cells were washed with 0.5% bovine serum albumin in phosphate buffered saline (0.01 M) (BSA/PBS), pre-cooled for 15 min and incubated with fluorescently labeled polymer–peptide conjugates in the dark for 1 h at 4 °C. After incubation, the cells were washed once with BSA/PBS, centrifuged at 1500 rpm for 3 min and re-suspended in 1 μM Sytox Blue Dead Cell Stain (Thermo Fisher Scientific, Czech Republic) to distinguish live and dead cells. For measurement at 37 °C, HeLa cells were seeded 24 h prior to the experiment on 24-well plates at a density 1.5 × 10^5 cells per well. Polymer–peptide conjugates were then added together with fresh DMEM and incubated at 37 °C in 5% CO2 and humidified atmosphere. Subsequently, cells were washed with BSA/PBS, harvested with 0.05% trypsin at 37 °C for 3 min, transferred to tubes, centrifuged at 1500 rpm for 3 min, and re-suspended in PBS/BSA containing 1 μM Sytox Blue Dead Cell Stain (Thermo Fisher Scientific, Czech Republic). All measurements were acquired using a FACSVerse™ flow cytometer (Becton Dickinson Czechia, s.r.o., Prague, Czech Republic) and analyzed by FlowJo software version 10 (Tree Star Inc., Ashland, OR, USA); the median of fluorescence intensity was determined. The concentration of polymer conjugates was adjusted to the value corresponding to a final concentration of peptide 1000 μM. This stock solution was diluted with PBS to obtain all used concentrations. […] HeLa cells without a polymer were used as a negative control. All samples were measured in duplicates in two independent experiments.
The uptake of the polymer–peptide conjugates incubated with the cells was measured using flow cytometry.

[4] = 4 °C (cells precooled 15 min), 50 μM of CPP, up to 4 h
[5] = 37 °C, 50 μM of CPP, 1, 2 or 4 h
[6] = 24 h incubation, Alamar Blue, Dy633-labeled conjugates, mean ± SD, triplicate in three independent experiments, for REF virtual CPP concentration of the same weight concentration, read-out: IC50 (concentration of the CPP reducing the cell viability to one half)

COc1cccc2c1C(=O)c1c(O)c3c(c(O)c1C2=O)C[C@@](O)(C(=O)CO)C[C@@H]3O[C@H]1C[C@H](N)[C@H](O[C@@H]2CCCCO2)[C@H](C)O1 [Pir, Pirarubicin, reference compound]
IC50 ([1]; Homo sapiens, 24 h incubation, Alamar Blue, expressed as pirarubicin, mean ± SD, triplicate in three independent experiments, read-out: IC50 (concentration of the Pir reducing the cell viability to one half)): 1.03 ± 0.3 µg/mL

GRKKRRQRRR [TAT12]
cellular localization / internalization by confocal microscopy (in words) [2, 4]: partially localized even in the cytosol
cellular localization / internalization by confocal microscopy (in words) [2, 5]: localized in cytosol already after 1 h
presence of the polymer in the cell nuclei (in words) [2, 5]: negligible
penetration efficacy relative to spacer-free conjugate TAT0 ([3]; HeLa, 4 °C, 1 h, 50 μM of CPP): 2.8 times

PFVYLI [PF4]
increase in uptake relative to REF ([3]; HeLa, 4 °C (precooled cells), 1 h, median fluorescence intensity ratio to REF): up to 2 times
uptake relative to control polymer at the highest concentration ([3]; HeLa, 4 °C, 1 h): 1.8 times
uptake relative to control polymer at the highest concentration ([3]; HeLa, 37 °C, 1 h): 1.8 times

GRKKRRQRRR [TAT4]
IC50 [1, 6]: 95.3 ± 2.6 µM
internalization efficiency compared with the control polymer [3]: about 40 times
cell penetration level compared with REF ([3]; HeLa, 4 °C, 1 h, 1 μM of CPP): seven
enhanced cellular uptake (relative fluorescence intensity) compared to REF ([3]; HeLa, 37 °C, 1 h, 0.1 μM of CPP): 14 times

GRKKRRQRRR [P-T12-Pir, HPMA copolymer bearing pirarubicin via GFLG and TAT via dodeca(ethylene glycol) spacer]
IC50 lower compared with P-Pir conjugate without any CPP ([1]; 24 h incubation): more than two
IC50 (concentration of the Pir reducing the cell viability to one half) ([1]; 24 h incubation, Alamar Blue, expressed as pirarubicin, mean ± SD, triplicate in three independent experiments): 18.3 ± 6.2 µg/mL
IC50 ([1]; 24 h incubation, read-out: concentration of CPP present on the conjugate at IC50 value): ~20.7 µM
cytotoxicity (IC50 as pirarubicin) after longer incubation time ([1]; 72 h incubation, Alamar Blue): 11.1 ± 1.6 µg/mL

RRMKWKK [PEN4]
IC50 [1, 6]: 82.9 ± 4.8 µM
internalization efficiency compared with the control polymer [3]: ~15 times
effect of tetra(ethylene glycol) spacer on penetration compared with spacer-free PEN0 (in words) ([3]; HeLa, 4 °C, 1 h): not long enough to improve the penetration
uptake compared with TAT4 (in words) ([3]; HeLa, 4 °C, 1 h, 1 and 10 μM of CPP): slightly outperformed TAT4
concentration dependence of relative uptake (in words) ([3]; HeLa, 4 °C, 1 h, 25 and 50 μM of CPP): did not exhibit any more improvement
relative increase of fluorescence intensity compared to REF, versus TAT4 (in words) ([3]; HeLa, 37 °C, 1 h, all measured concentrations): lower than in the case of TAT4

RRMKWKK [PEN12]
cellular localization / internalization by confocal microscopy (in words) [2, 4]: much less pronounced at 4 °C
cellular localization / internalization by confocal microscopy (in words) [2, 5]: lower cell internalization compared with TAT12
penetration efficacy relative to shorter analog PEN4 ([3]; HeLa, 4 °C, 1 h, 25 μM of CPP): two

VPMLK [VP4]
cell penetration compared with control polymer (in words) ([3]; HeLa, 1 h): do not penetrate cells better than the control polymer

YARAAARQARA [YA4]
cell penetration compared with control polymer (in words) ([3]; HeLa, 1 h): do not penetrate cells better than the control polymer

RYIRS [RY4]
cell penetration compared with control polymer (in words) ([3]; HeLa, 1 h): do not penetrate cells better than the control polymer
